Measured values reported in the supplement of paper PMC10307832.

Columns and labels:
Experiment in all cases: relative viability (nuclei count vs DMSO), 5 days (fraction); higher = more cells survive
[1] = compound: CCOc1cc2ncc(C#N)c(Nc3ccc(OCc4ccccn4)c(Cl)c3)c2cc1NC(=O)/C=C/CN(C)C [Neratinib] + COc1cccc2cc(-c3nc([C@H]4CC[C@H](C(=O)O)CC4)n4ncnc(N)c34)[nH]c12 [OSI-027] (partner 0.5 µM)
Summary of the method: (§1)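 A single step with final 0.05% Triton X-100, 1% formaldehyde and 1 ug/ml Hoechst fixed the cells and stained nuclei 5 days after treatment. Lung cancer cell lines in 1536-well plates had been treated by pin tool the day after seeding with one drug alone or a fixed anchor-drug dose plus five library-drug doses (not always all listed) in √10 steps, and nuclei were counted on 4× images. Relative viability is the ratio of nuclei in treated wells to nuclei in vehicle wells, taken as the median of duplicate plates.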

[2] = compound: CCOc1cc2ncc(C#N)c(Nc3ccc(OCc4ccccn4)c(Cl)c3)c2cc1NC(=O)/C=C/CN(C)C [Neratinib] + C[C@@H](Oc1cc(-c2cnn(C3CCNCC3)c2)cnc1N)c1c(Cl)ccc(F)c1Cl [Crizotinib] (partner 1 µM)
Summary of the method: as §1

[3] = compound: CCOc1cc2ncc(C#N)c(Nc3ccc(OCc4ccccn4)c(Cl)c3)c2cc1NC(=O)/C=C/CN(C)C [Neratinib] + C[C@]1(O)C[C@@H](c2nc(-c3ccc4ccc(-c5ccccc5)nc4c3)c3c(N)nccn32)C1 [Linsitinib] (partner 1 µM)
Summary of the method: as §1

[4] = compound: CCOc1cc2ncc(C#N)c(Nc3ccc(OCc4ccccn4)c(Cl)c3)c2cc1NC(=O)/C=C/CN(C)C [Neratinib] + Cc1cc(Nc2cc(N3CCN(C)CC3)nc(Sc3ccc(NC(=O)C4CC4)cc3)n2)n[nH]1 [Tozasertib] (partner 0.1 µM)
Summary of the method: as §1

Row | Cell Line | relative viability ([1]; first compound 0.01 µM) | relative viability ([1]; first compound 0.03162 µM) | relative viability ([1]; first compound 0.1 µM) | relative viability ([1]; first compound 0.3162 µM) | relative viability ([1]; first compound 1 µM) | relative viability ([2]; first compound 0.01 µM) | relative viability ([2]; first compound 0.03162 µM) | relative viability ([2]; first compound 0.1 µM) | relative viability ([2]; first compound 0.3162 µM) | relative viability ([2]; first compound 1 µM) | relative viability ([3]; first compound 0.01 µM) | relative viability ([3]; first compound 0.03162 µM) | relative viability ([3]; first compound 0.1 µM) | relative viability ([3]; first compound 0.3162 µM) | relative viability ([3]; first compound 1 µM) | relative viability ([4]; first compound 0.01 µM) | relative viability ([4]; first compound 0.03162 µM) | relative viability ([4]; first compound 0.1 µM) | relative viability ([4]; first compound 0.3162 µM) | relative viability ([4]; first compound 1 µM)
1 | LU99A | 0.287 | 0.311 | 0.292 | 0.288 | 0.26 | 0.513 | 0.586 | 0.472 | 0.527 | 0.32 | 0.608 | 0.643 | 0.365 | 0.575 | 0.215 | 0.286 | 0.279 | 0.274 | 0.25 | 0.19
2 | NCI-H1355 | 0.402 | 0.379 | 0.346 | 0.358 | 0.277 | 1.12 | 1.11 | 0.949 | 0.846 | 0.31 | 0.894 | 0.825 | 0.775 | 0.63 | 0.453 | 0.541 | 0.548 | 0.482 | 0.436 | 0.282
3 | NCI-H650 | 0.546 | 0.544 | 0.553 | 0.46 | 0.456 | 0.866 | 0.699 | 0.78 |  | 0.421 | 1 | 0.986 | 1.03 |  | 0.577 | 0.749 | 0.829 | 0.654 | 0.668 | 0.583
4 | PC-14 | 0.739 | 0.987 | 0.798 | 0.177 | 0.0699 |  | 0.851 | 0.796 | 0.662 | 0.356 | 0.979 | 1.1 | 0.872 | 0.639 | 0.216 | 0.574 | 0.721 | 0.627 | 0.454 | 0.0727
5 | NCI-H838 | 0.463 | 0.492 | 0.419 | 0.325 | 0.226 | 0.995 | 0.812 | 0.833 | 0.67 | 0.476 | 1.06 | 1.17 | 0.945 | 0.819 | 0.409 | 0.274 | 0.291 | 0.241 | 0.267 | 0.22
6 | NCI-H727 | 0.58 | 0.68 | 0.466 | 0.638 | 0.406 | 0.844 | 1.02 |  | 0.597 | 0.423 | 0.244 | 0.282 |  | 0.286 | 0.255 | 0.675 | 0.535 | 0.5 | 0.53 | 0.34
7 | 201T | 0.725 | 0.889 | 0.683 | 0.646 | 0.611 | 1.08 | 0.974 | 0.861 | 1.06 | 0.959 | 1.01 | 1.01 | 0.92 | 0.931 | 0.852 | 1.14 | 0.945 | 0.848 | 0.858 | 0.766
8 | RERF-LC-KJ | 0.539 |  | 0.477 | 0.434 | 0.326 | 0.847 | 0.817 | 0.795 | 0.701 | 0.633 | 0.943 |  | 0.865 | 0.714 | 0.712 | 0.553 | 0.593 | 0.586 | 0.5 | 0.293
